Columns and labels:
Format in all cases: biochemical
full-length BLM helicase = target: T1, full-length BLM helicase (Homo sapiens, UniProt P54132); test: Radiometric helicase assay, full-length BLM; conditions: for IC50: full-length BLM 0.1 nM, FORKR 0.5 nM
T1 construct: Full length recombinant WRN [18], BLM [19], and FANCJ [20] proteins were purified from insect cells; made in house; host or cells: insect cells
Procedure: Fifteen μL of reaction buffer was added to a microcentrifuge tube followed by the addition of 1 μL of selected compounds (0.5–100 μM final concentration) or DMSO. One μL of WRN (full length), RECQ1, FANCJ, BLM or control was added to each reaction and incubated at room temperature for 15 min. Three μL of substrate (0.5 nM FORKR and 2 mM ATP final concentrations) were added to all reactions which were incubated at 37°C for 15 min. Reactions were stopped with the addition of 20 μL of 2X STOP dye containing EDTA, glycerol, bromphenol blue and xylene cyanol. Samples were electrophoresed for 1.5 hr at 200 V on a 12% non-denaturing PAGE gel in 1X TBE Buffer.
Three compounds identified from the cherry-picked set were tested for their effects on WRN exonuclease activity (20 nM) on the FORKR DNA substrate (1 nM) as well as DNA unwinding by full-length BLM (0.1 nM) and FANCJ (5 nM) helicases, which belong to the same Superfamily 2 as WRN [25], to assess their specificity for inhibition of WRN-catalyzed unwinding of the FORKR DNA substrate (0.5 nM). […] Nonetheless, these two compounds were also further tested in cell-based assays to assess their effects on proliferation.
Supplementary file pone.0210525.s005.TIF: S5 Fig Specificity of select WRN inhibitors for inhibition of other human helicases. (A) Quantitation of full-length BLM helicase (0.1 nM) activity on the FORKR DNA substrate (0.5 nM) with increasing concentration of each compound (0–100 μM). (B) Quantitation of full-length FANCJ (5 nM) helicase activity on the FORKR DNA substrate (0.5 nM) with increasing concentration of each compound (0–100 μM). (TIF) Click here for additional data file.

[1] = target: T2, WRN helicase domain fragment (Homo sapiens, UniProt Q14191); test: WRN-hel-f2 protocol qHTS confirmatory (15 compound confirmatory assay); conditions: NA = Not Active
T2 construct: GST (N); made in house
T2 sequence (Q14191 500-946): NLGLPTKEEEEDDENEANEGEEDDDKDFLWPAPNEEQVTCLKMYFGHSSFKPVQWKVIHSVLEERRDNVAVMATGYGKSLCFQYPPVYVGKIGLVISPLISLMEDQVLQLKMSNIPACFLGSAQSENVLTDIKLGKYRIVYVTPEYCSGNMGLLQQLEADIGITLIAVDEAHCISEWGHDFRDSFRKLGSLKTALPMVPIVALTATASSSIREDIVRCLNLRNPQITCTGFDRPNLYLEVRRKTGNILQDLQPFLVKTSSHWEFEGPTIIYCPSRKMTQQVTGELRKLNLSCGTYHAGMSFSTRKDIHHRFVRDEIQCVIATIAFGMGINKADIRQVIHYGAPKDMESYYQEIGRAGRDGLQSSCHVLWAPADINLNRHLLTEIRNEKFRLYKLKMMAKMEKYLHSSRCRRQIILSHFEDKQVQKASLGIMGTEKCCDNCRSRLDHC
Procedure: (§1) The structures of the members of this collection are available in the PubChem portal https://pubchem.ncbi.nlm.nih.gov/. For both the 350,000 small molecule collection and the LOPAC^1280 screens, 3 μL of GST-WRN500-946 or reaction buffer only were dispensed using a solenoid-valve nanoliter dispenser into a black 1536-well plate (Greiner). Twenty three nL of each serially diluted compound (0.08–50 μM for the LOPAC screen and 0.003–114 μM for the larger library screen) or control were added to each well using a Kalypsys pintool equipped with a 1536-pin array. Plates were incubated at room temperature for 15 min, followed by initiation of the reactions via the addition of 1 μL of substrate (100 nM FORKF and 2 mM ATP final concentrations). Plates were transferred to a ViewLux high-throughput CCD imager and fluorescence was measured in kinetic mode using an excitation filter of 525 nm and emission filter of 598 nm.

[2] = target: T3, GST-WRN500-946 helicase domain fragment (Homo sapiens, UniProt Q14191); test: High-throughput fluorometric helicase screen, PubChem AID 651768; conditions: initial qHTS; 20 nM GST-WRN500-946; 100 nM FORKF; NA = Not Active; read-out: IC50 (μM) Assay ID 651768
T3 construct: made in house; host or cells: insect cells
T3 sequence (Q14191 500-946): as above
Procedure: as §1
Zʹ factor, a measure for assay quality control was calculated using the formula Z′ = 1−(3σS^++3σS^−)∕|μS^+−μS^−| as described previously. In this formula, 3σS^+ represents 3 standard deviations from the mean of positive signals while 3σS^− represents 3 standard deviations from the mean of negative signals. μS^+ and μS^− represent the mean of positive signals and negative signals respectively. Percent activity was derived using in-house software (http://tripod.nih.gov/curvefit/). Dose-response curves were classified as described previously.
A collection of approximately 350,000 compounds is available for screening which has been assembled from multiple sources to provide diverse chemical scaffolds with known purity, identity and solubility. To perform the high-throughput screen of these compounds, we needed to produce approximately 50 milligrams of recombinant WRN helicase fragment. To accomplish this, we cloned the helicase domain fragment into several plasmids for either insect cell or bacterial expression to optimize expression and yield. We selected expression plasmids for insect cell expression with either a GST or MBP tag (image A in S1 Fig) and purified the protein (image B in S1 Fig). The GST-WRN500-946 fragment isolated from insect cells was used in the high throughput screen with the conditions described in Fig 2C (20 nM GST-WRN500-946, 100 nM FORKF DNA substrate) and a summary of the results can be found on PubChem (National Center for Biotechnology Information. PubChem BioAssay Database; Assay Identifier (AID) = 651768, https://pubchem.ncbi.nlm.nih.gov/bioassay/651768). […] To verify the active compounds, approximately 600 hit molecules were retested in a confirmatory screen also found on PubChem (National Center for Biotechnology Information. PubChem AID = 720497, https://pubchem.ncbi.nlm.nih.gov/bioassay/720497). Of these, a little less than four hundred compounds were confirmed as active compounds.

T1 sequence (P54132 whole entry): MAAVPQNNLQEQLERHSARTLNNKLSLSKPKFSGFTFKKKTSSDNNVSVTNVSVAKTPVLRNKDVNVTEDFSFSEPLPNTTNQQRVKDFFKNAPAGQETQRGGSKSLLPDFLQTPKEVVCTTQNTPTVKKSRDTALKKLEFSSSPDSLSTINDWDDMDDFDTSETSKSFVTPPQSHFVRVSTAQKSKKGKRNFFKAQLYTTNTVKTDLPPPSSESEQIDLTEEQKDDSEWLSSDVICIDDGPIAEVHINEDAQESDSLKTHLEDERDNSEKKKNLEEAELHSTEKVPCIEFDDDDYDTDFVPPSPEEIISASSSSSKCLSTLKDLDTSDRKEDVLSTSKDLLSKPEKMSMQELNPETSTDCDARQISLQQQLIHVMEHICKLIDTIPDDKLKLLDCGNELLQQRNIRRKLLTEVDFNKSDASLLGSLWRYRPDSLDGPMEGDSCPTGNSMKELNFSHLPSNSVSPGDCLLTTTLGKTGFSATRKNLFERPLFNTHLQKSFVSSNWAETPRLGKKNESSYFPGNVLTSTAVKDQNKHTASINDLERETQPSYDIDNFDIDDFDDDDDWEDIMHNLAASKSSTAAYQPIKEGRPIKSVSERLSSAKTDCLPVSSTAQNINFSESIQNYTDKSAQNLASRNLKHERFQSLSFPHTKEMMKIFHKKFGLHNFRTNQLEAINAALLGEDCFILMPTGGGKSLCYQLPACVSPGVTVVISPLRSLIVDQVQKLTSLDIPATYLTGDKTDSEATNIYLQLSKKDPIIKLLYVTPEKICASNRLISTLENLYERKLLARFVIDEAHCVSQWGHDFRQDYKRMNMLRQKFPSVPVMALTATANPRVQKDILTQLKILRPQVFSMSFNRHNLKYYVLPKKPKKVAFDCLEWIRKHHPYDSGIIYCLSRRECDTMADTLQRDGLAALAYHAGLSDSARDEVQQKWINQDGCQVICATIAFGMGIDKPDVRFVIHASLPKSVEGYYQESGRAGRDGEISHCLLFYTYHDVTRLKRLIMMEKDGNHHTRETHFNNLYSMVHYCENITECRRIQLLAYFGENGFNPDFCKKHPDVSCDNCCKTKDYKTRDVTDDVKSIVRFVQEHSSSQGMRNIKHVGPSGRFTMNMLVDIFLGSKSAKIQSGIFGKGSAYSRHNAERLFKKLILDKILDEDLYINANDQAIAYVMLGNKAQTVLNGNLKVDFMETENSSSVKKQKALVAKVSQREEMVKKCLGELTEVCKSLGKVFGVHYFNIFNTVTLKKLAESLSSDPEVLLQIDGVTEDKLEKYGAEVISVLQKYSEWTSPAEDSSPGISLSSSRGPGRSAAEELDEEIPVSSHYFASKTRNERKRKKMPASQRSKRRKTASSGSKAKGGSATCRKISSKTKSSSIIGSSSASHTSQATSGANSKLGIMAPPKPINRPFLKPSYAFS

## Cc1ccc(-c2csc(NS(=O)(=O)c3cccc(F)c3)n2)o1 [MLS002251300-02]
full-length BLM helicase; WRN vs BLM
  IC50 for WRN helicase inhibition fold less than that observed for BLM: 2.5 fold
full-length BLM helicase
  IC50: 13 ± 2.6 µM
[1]
  IC50: 20 µM
[2]
  IC50: 31.6 µM

## COc1ccc2nc(O)c(-c3noc(-c4ccccc4)n3)cc2c1 [NCGC00063279-02]
full-length BLM helicase
  IC50: 46.1 µM
[1]
  IC50: 2.5 µM
[2]
  IC50: 21.5 µM

## COc1ccc2nc(O)c(-c3noc(-c4ccc(F)cc4)n3)cc2c1 [NCGC00029283-02]
full-length BLM helicase
  IC50: 12.5 ± 1.8 µM
[1]
  IC50: 0.45 µM
[2]
  IC50: 50 µM

— publication PMC6326523, “A high-throughput screen to identify novel small molecule inhibitors of the Werner Syndrome Helicase-Nuclease (WRN)” (PLoS ONE, 2019)
